Assay results taken from the NIST ThermoML archive (doi:10.1021/je7005055).

Legend:
[1] = 298.15 K; 101.33 kPa; Liquid
[2] = xn = mol fraction of the nth substance listed; conditions: 298.15 K, 101 kPa, Liquid

CN1CCOCC1 [N-methylmorpholine]
Conditions	mass density [kg/m3]
[1]	914.06

CN1CCOCC1 [N-methylmorpholine] + CCCCCCCCO
[2]
Conditions	mass density [kg/m3]
x1 = 0.0461	823.88
x1 = 0.1101	827.55
x1 = 0.1862	832.09
x1 = 0.2381	835.33
x1 = 0.2848	838.58
x1 = 0.3484	843.06
x1 = 0.4029	846.99
x1 = 0.4899	853.86
x1 = 0.5121	855.92
x1 = 0.6012	863.81
x1 = 0.6547	869.5
x1 = 0.7213	875.97
x1 = 0.7831	883.26
x1 = 0.8353	889.72
x1 = 0.8958	897.82
x1 = 0.9541	905.92
x1 = 0.9792	909.72

CN1CCOCC1 [N-methylmorpholine] + CCCCCCO
[2]
Conditions	mass density [kg/m3]
x1 = 0.0459	818.34
x1 = 0.1098	823.37
x1 = 0.1852	829.49
x1 = 0.2377	833.69
x1 = 0.2855	837.76
x1 = 0.3495	843.34
x1 = 0.4034	848.09
x1 = 0.4887	855.97
x1 = 0.5129	858.26
x1 = 0.5998	866.75
x1 = 0.6583	872.76
x1 = 0.7174	879.14
x1 = 0.7844	886.51
x1 = 0.8341	892.31
x1 = 0.8964	899.75
x1 = 0.9538	907.13
x1 = 0.9784	910.69

CN1CCOCC1 [N-methylmorpholine] + CCCCCO
[2]
Conditions	mass density [kg/m3]
x1 = 0.0487	813.72
x1 = 0.1129	820.02
x1 = 0.1766	826.08
x1 = 0.2412	832.41
x1 = 0.2801	836.23
x1 = 0.3998	847.87
x1 = 0.4612	854.03
x1 = 0.5826	866.38
x1 = 0.6444	872.93
x1 = 0.7267	881.91
x1 = 0.7801	887.89
x1 = 0.8226	892.69
x1 = 0.8811	899.57
x1 = 0.9428	907.1
x1 = 0.9854	912.11

CN1CCOCC1 [N-methylmorpholine] + CCCCO
[2]
Conditions	mass density [kg/m3]
x1 = 0.0455	811.49
x1 = 0.1089	818.95
x1 = 0.1675	825.55
x1 = 0.2399	833.8
x1 = 0.2811	838.33
x1 = 0.3494	845.7
x1 = 0.3985	850.99
x1 = 0.4533	856.71
x1 = 0.5285	864.54
x1 = 0.6444	876.67
x1 = 0.7198	885.45
x1 = 0.7865	891.47
x1 = 0.8237	895.31
x1 = 0.8843	901.73
x1 = 0.9411	907.87
x1 = 0.9801	912

CN1CCOCC1 [N-methylmorpholine] + CCCO
[2]
Conditions	mass density [kg/m3]
x1 = 0.0237	803.87
x1 = 0.1003	816.55
x1 = 0.1657	826.67
x1 = 0.2336	836.52
x1 = 0.2812	843.01
x1 = 0.3458	851.12
x1 = 0.3988	857.14
x1 = 0.4476	861.99
x1 = 0.5784	874.68
x1 = 0.6347	879.93
x1 = 0.7195	888.06
x1 = 0.7684	892.76
x1 = 0.8327	898.56
x1 = 0.8674	901.93
x1 = 0.9443	908.83
x1 = 0.9878	912.75

CN1CCOCC1 [N-methylmorpholine] + CCO
[2]
Conditions	mass density [kg/m3]
x1 = 0.0511	797.55
x1 = 0.1166	812.41
x1 = 0.1795	825.38
x1 = 0.2438	837.23
x1 = 0.2795	843.43
x1 = 0.3532	854.69
x1 = 0.4021	861.24
x1 = 0.4573	867.56
x1 = 0.4982	871.73
x1 = 0.5342	875.35
x1 = 0.5832	879.41
x1 = 0.6432	884.36
x1 = 0.7234	890.96
x1 = 0.7786	895.53
x1 = 0.8216	899.13
x1 = 0.8794	904.05
x1 = 0.9432	909.42
x1 = 0.9832	912.63

CCCCO [butan-1-ol]
Conditions	mass density [kg/m3]
[1]	805.92

CCO [ethanol]
Conditions	mass density [kg/m3]
[1]	784.94

CCCCCCO [hexan-1-ol]
Conditions	mass density [kg/m3]
[1]	814.95

CCCCCCCCO [octan-1-ol]
Conditions	mass density [kg/m3]
[1]	821.65

CCCCCO [pentan-1-ol]
Conditions	mass density [kg/m3]
[1]	810.83

CCCO [propan-1-ol]
Conditions	mass density [kg/m3]
[1]	799.52
